# Data from patent US8920851B2, “Treatment of neurodegenerative diseases” (Velacor Therapeutics Pty Ltd, priority 2006, dated 2014).
# How the values were obtained:
# [1] = tested on: human TAU441; details: TMHT mice
# Method: This was done every Monday, Wednesday and Friday, and the water was weighed on exchange to measure consumption.
# After blood sampling transgenic mice were intracardially perfused with 0.9% sodium chloride. Brains were rapidly removed, and the right half was immersion fixed for 24 hours in freshly prepared 4% Paraformaldehyde and embedded in paraffin for histological investigations. The left hemisphere was frozen on dry ice and stored at −80° C. for possible later biochemical analysis.
# In initially nine (9) brain hemispheres (≧3 per Tg animal group) histological evaluations were performed to qualitative and quantitative evaluate TAU pathology.
# Fifteen (15) coronal consecutive sections (Leica SM 2000R) were cut (5 μm thick) at each of 5 different brain layers between Bregma −1.82 and −1.34 mm, which were chosen according to the morphology atlas “The Mouse Brain” from Paxinos and Franklin (2 ^d edition), for Gallyas staining and for determination TAU pathology with specific antibodies (AT180 and HT7). Tissues of all transgenic animals investigated were handled in exactly the same way to avoid bias due to variation of this procedure. Remaining brain hemispheres or tissue not used are saved and stored until the sponsor has decided to how to proceed or until end of the study.
# TAU depositions were determined using the monoclonal TAU-antibodies AT180 and HT7 (Pierce Endogen®).
# Five (5) μm thick coronal paraffin sections from each of the five different layers were stained with the above described monoclonal mouse anti-human TAU-antibodies (AT180—1:100; HT7—1:1000) and visualized using a secondary anti-mouse Cy3 (1:500, Jackson Laboratories®). The detailed staining protocols are set out below:
# AT180 incubation protocol for the determination of human PHF-TAU depositions • 1.) Deparaffinize and hydrate tissue sections through Tissue Clear (Sakura®) and graded alcohol (Merck®) series. • 2.) Wash for 2 minutes in Aqua bidest (Fresenius-Kabi®) • 3.) Place tissue sections for antigen unmasking in 10% citrate buffer (Labvision®) for 15 minutes at 95° C. in a steamer and to cool down for 15 minutes at room temperature. • 4.) Wash sections for 2×5 minutes in PBS. • 5.) Block endogenous peroxidase with 1% hydrogen peroxide (Linaris®) in methanol (Merck®) for 10 minutes at room temperature. • 6.) Wash sections for 2×5 minutes in PBS. • 7.) Block unspecific bindings with MOM-Blocking Reagent (Vector®) for 60 minutes at room temperature in a damp chamber. • 8.) Wash sections for 2×5 minutes in PBS. • 9.) Block unspecific bindings with MOM-Diluent (Vector®) for 5 minutes at room temperature. • 10.) Incubate with AT180 (Pierce Endogen®; 1:100 in MOM-Diluent) for 60 minutes at room temperature in a damp chamber. • 11.) Wash sections for 3×5 minutes in PBS. • 12.) Block unspecific bindings with 10% Non-Immune Goat-Normal Serum (Dako®) for 10 minutes at room temperature in a damp chamber. • 13.) Wash sections for 2×5 minutes in PBS. • 14.) Incubate with Cy 3 Goat Anti-Mouse (Jackson®; 1:500 in MOM-Diluent) for 60 minutes at room temperature in a damp chamber. • 15.) Wash sections for 5 minutes in PBS. • 16.) Wash sections for 5 minutes in Aqua bidest. • 17.) Cover sections with Moviol and coverslips.
# [2] = molecular target: phosphatase activity associated with immunoprecipitated Akt protein (PP2A) (Homo sapiens, UniProt P67775); details: PC3 cells, 500 μM, 1 h
# Sequence of phosphatase activity associated with immunoprecipitated Akt protein (PP2A) (P67775 whole entry): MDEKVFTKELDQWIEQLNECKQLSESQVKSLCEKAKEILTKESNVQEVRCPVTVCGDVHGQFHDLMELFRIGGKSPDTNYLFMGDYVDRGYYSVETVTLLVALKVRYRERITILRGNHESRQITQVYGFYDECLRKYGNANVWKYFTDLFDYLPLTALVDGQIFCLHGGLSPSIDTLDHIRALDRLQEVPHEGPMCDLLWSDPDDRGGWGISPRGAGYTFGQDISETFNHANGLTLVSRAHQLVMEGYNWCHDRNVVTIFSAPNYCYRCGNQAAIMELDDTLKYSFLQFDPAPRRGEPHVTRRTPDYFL
# Sequence of phosphatase activity associated with immunoprecipitated Akt protein (PP2A) (P30153 2-589, further chain): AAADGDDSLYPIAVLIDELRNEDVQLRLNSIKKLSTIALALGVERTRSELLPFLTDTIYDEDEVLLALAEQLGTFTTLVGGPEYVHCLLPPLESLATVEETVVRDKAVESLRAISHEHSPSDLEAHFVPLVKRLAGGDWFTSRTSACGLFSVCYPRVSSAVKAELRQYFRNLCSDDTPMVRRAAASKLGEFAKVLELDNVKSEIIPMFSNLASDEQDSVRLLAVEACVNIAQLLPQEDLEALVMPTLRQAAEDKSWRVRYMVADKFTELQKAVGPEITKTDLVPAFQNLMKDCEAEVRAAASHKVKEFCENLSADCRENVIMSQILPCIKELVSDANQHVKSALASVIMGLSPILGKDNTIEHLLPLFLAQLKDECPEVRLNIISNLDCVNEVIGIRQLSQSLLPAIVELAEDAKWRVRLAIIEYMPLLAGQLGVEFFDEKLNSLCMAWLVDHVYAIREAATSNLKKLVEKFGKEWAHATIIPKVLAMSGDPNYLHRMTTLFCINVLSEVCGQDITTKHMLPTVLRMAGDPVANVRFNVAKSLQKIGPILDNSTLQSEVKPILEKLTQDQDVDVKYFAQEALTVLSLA
# Method: 2×10^6 PC3 cells were plated in 10 cm plates, allowed to attach for 8 hours, and then serum starved over night. […] 500-600 μg of total protein was then immunoprecipitated with anti-Akt (1:100) monoclonal antibody and 30 μl of Protein A slurry, and after washing, checked for free phosphate contamination by incubation of 25 μl of final wash buffer with Malachite Green. Immunoprecipitates were assayed for phosphatase activity by incubation with 500 μM synthetic phospho-threonine peptide for 10 min at 30° C. with agitation. Free phosphate was detected by the addition of malachite green solution, and absorbance was read at 590 nm, for each sample in duplicate.
smiles,measurement,setting,value
O=[Se](=O)(O)O [sodium selenate],"percentage of relative TAU area in the Amygdala (AT180), versus untreated baseline",[1],not versus untreated baseline group
same,percentage of relative HT7-TAU area in the hippocampus,"[1]; 1.2 mg, versus vehicle (ANOVA p<0.05, T-Test p=0.04) and untreated baseline (ANOVA p<0.05)",significantly reduced
same,percentage of relative AT180-TAU area in the hippocampus,"[1]; 1.2 mg, versus vehicle (T-Test p=0.04)",reduced
same,"percentage of relative TAU area in the Amygdala (AT180), versus vehicle","[1]; ANOVA p<0.05, T-Test p=0.0045",significantly reduced percentage of relative HT7-TAU area
same,TAU load and TAU positive cells in the amygdala and neuronal layer of the hippocampal CA1 region,[1]; AT180 and HT7 immunoreactivity,visibly reduced TAU load as well as TAU positive cells
same,percentage of relative HT7-TAU area in the Amygdala,"[1]; versus untreated baseline (ANOVA p<0.01) and vehicle (ANOVA p<0.05, T-test p=0.0018)",significantly reduced percentage of relative HT7-TAU area
same,phosphatase activity associated with immunoprecipitated Akt protein,[2],more than doubled
